Measured values as given in patent US20030232851A1, “Viral treatment” (The Procter & Gamble Company, priority 1999, published 2003).
Where “and” joins values, the source holds several entries; their conditions need not be identical. Equal values may be shown once.

Legend:
HIV-1 integrase = HIV-1 integrase (Human immunodeficiency virus type 1 group M subtype B, UniProt P04585); experiment: HIV-1 integrase inhibition assay; assay type: biochemical; design: HIV-1 Integrase Inhibition, sample reading / HIV-1 Integrase Inhibition, mean: unit not given here; settings: for HIV-1 Integrase Inhibition, sample reading: sample 1, sample 2
Text: A biochemical integrase assay described by Craigie et at (HIV, vol. 2: A practical Approach) Biochemistry, Molecular Biology and Drug Discovery, Ed. J. Kam 1995) to screen agents for their ability to inhibit HIV-1 integrase. In this system, a kinased oligonucleotide serves as the target of 3′ processing and the subsequent strand transfer reaction. The 3′ processing reaction involves the removal of 2 nucleotides from the 3′ ends of the substrate and this is followed by the strand transfer reaction in which the 3′ ends are joined to the exposed 5′ ends. The 20 μl reaction mixture contains 25 mM MOPS (pH 7.2), […] BSA, 10 mM β-mercaptoethanol, 10% glycerol, 7.5 mM MnCl2, 25 nM (7 ng) substrate (Oligo's Etc., Wilsonville, Oreg.) and 200 nM (128 ng) integrase (NIAID AIDS Research and Reference Reagent Program, Bethesda, Md.). The reaction proceeds at 37° C. for 1-2 hours and is terminated by the addition of 20 μl of sequencing stop solution (JSB Amersham, Arlington Heights, Ill.). The reaction products are visualized by autoradiography following electrophoresis in 15% polyacrylamide 6M Urea gel. The substrate migrates as a 30 mer, the product of 3′ processing migrates as an N-2 band and the strand transfer products migrate more slowly at various sizes larger than the substrate.

[1] = tested on: U937RF, a protease resistant strain; experiment: Long term in vitro study, U937RF, reverse transcriptase; assay type: cell-based, HIV
Procedure: A microtiter-based reveres transcriptase (RT) reaction is utilized (Buckheit et al (1991) AIDS Research and Human Retroviruses 7:295-302). Tritiated thymidine triphosphate (NEN)(TTP) is resuspended in distilled water at 5 Ci/ml. Poly rA and oligo dT are prepared as a stock solution which is kept at −20° C. The RT reaction buffer is prepared fresh on a daily basis and consists of 125 μl 1M EGTA, 125 μl water, 125 μl Triton X-100, 50 μl Tris (pH 7.4), 50 μl 1 MDDT, and 40 μl 1M MgCl2. These three solutions are mixed together in a ratio of 1 part TTP, 2.5 parts poly rA:oligo dT, 2.5 parts reaction buffer and 4 parts distilled water. Ten microliters of this reaction mixture is placed in a round bottom microtiter place and 15 μl of virus containing supernatant is added and mixed. The plate is incubated at 37° C. for 60 minutes. Following reaction, the reaction volume is spotted onto filter mats, washed 6 times for 5 minutes each in a 5% sodium phosphate buffer, 2 times for 1 minute each in distilled water, 2 times for 1 minute each in 70% ethanol, and then dried. The dried filter mat is placed in a plastic sample bag, Betaplate scintillation fluid is added and the bag is heat sealed. Incorporated radioactivity is quantified utilizing a Wallac Microbeta scintillation counter.
Acute infection of most established human cell lines with HIV-1 results in the eventual establishment of a constitutive virus-producing chronically infected cell line. The cells can be passaged for long periods of time in culture without loss of virus production. These cells may be utilized to evaluate the effects of anti-HIV compounds on syncytium formation or to evaluate the effects of anti-HIV compounds on levels of virus production from these cells. […] Each of the cells contains an integrated HIV genome or provirus. Chronically infected CEM, H9 and U937 cell lines have been prepared and cultured by Southern Research Institute, Frederick Md. and are available from them.
CEM-SS cells chronically infected with HIV isolate, for example SKI (CEM-SKI) are cultured in RPMI1640 tissue culture medium supplemented with 10% fetal bovine serum and antibiotics. […] CEM-SKI or other infected cells with no added drug are used as the control cells. Cells are allowed to grow to a density of approximately 1×10^6 cells/ml and are then passaged at a 1:10 dilution. […] The drug concentration in the flask is then increased two-fold and the cells maintained as above.
The cell populations contain integrated copies of the HIV genome and constitutively produce HIV at relatively high levels or are latently infected and only produce virus after stimulation with phorbol esters, tumor necrosis factor or IL6 (U1 and ACH2). Reductions in virus products were observed when quantifying supernatant reverse transcriptase activity,
A long term in vitro study of 2-(2-thienyl)-imidazolo [4,5-b]pyridine against U937RF, a protease resistant strain, was conducted at three different levels. The results with U937RF cells were reported at weekly intervals.

SMILES: c1csc(-c2nc3cccnc3[nH]2)c1 [2-(2-thienyl)-imidazolo [4,5-b]pyridine]
- EC50 (HIV-1 integrase): > 497 µM
- HIV-1 Integrase Inhibition, mean (HIV-1 integrase; 0.1 μg/ml): 10577
- HIV-1 Integrase Inhibition, sample reading (HIV-1 integrase; 0.1 μg/ml): 11155.2 and 9998.8
- HIV-1 Integrase Inhibition, mean (HIV-1 integrase; 1 μg/ml): 10104
- HIV-1 Integrase Inhibition, sample reading (HIV-1 integrase; 1 μg/ml): 10640.4 and 9568.4
- HIV-1 Integrase Inhibition, mean (HIV-1 integrase; 10 μg/ml): 10580
- HIV-1 Integrase Inhibition, sample reading (HIV-1 integrase; 10 μg/ml): 10814.1 and 10345.1
- HIV-1 Integrase Inhibition, mean (HIV-1 integrase; 100 μg/ml): 7214
- HIV-1 Integrase Inhibition, sample reading (HIV-1 integrase; 100 μg/ml): 7639.4 and 6788.6
- reverse transcriptase data ([1]; 7 μg/ml, day 4): 9711
- reverse transcriptase data ([1]; 7 μg/ml, day 11): 9974
- reverse transcriptase data ([1]; 7 μg/ml, day 18): 7462
- reverse transcriptase data ([1]; 7 μg/ml, day 25): 6952
- reverse transcriptase data ([1]; 7 μg/ml, day 32): 9161
- reverse transcriptase data ([1]; 7 μg/ml, day 39): 11155
- reverse transcriptase data ([1]; 7 μg/ml, day 46): 5178
- reverse transcriptase data ([1]; 7 μg/ml, day 53): 5878
- reverse transcriptase data ([1]; 7 μg/ml, day 60): 7586
- reverse transcriptase data ([1]; 7 μg/ml, day 67): 6678
- reverse transcriptase data ([1]; 7 μg/ml, day 71): 7299
- reverse transcriptase data ([1]; 7 μg/ml, day 74): 5927
- reverse transcriptase data ([1]; 7 μg/ml, day 88): 6996
- reverse transcriptase data ([1]; 7 μg/ml, day 95): 5624
- reverse transcriptase data ([1]; 7 μg/ml, day 102): 6002
- reverse transcriptase data ([1]; 7 μg/ml, day 109): 13890
- reverse transcriptase data ([1]; 15 μg/ml, day 4): 6397
- reverse transcriptase data ([1]; 15 μg/ml, day 11): 8051
- reverse transcriptase data ([1]; 15 μg/ml, day 18): 7932
- reverse transcriptase data ([1]; 15 μg/ml, day 25): 5229
- reverse transcriptase data ([1]; 15 μg/ml, day 32): 7277
- reverse transcriptase data ([1]; 15 μg/ml, day 39): 12487
- reverse transcriptase data ([1]; 15 μg/ml, day 46): 4703
- reverse transcriptase data ([1]; 15 μg/ml, day 53): 4960
- reverse transcriptase data ([1]; 15 μg/ml, day 60): 7952
- reverse transcriptase data ([1]; 15 μg/ml, day 67): 6417
- reverse transcriptase data ([1]; 15 μg/ml, day 71): 7016
- reverse transcriptase data ([1]; 15 μg/ml, day 74): 5903
- reverse transcriptase data ([1]; 15 μg/ml, day 88): 5887
- reverse transcriptase data ([1]; 15 μg/ml, day 95): 4602
- reverse transcriptase data ([1]; 15 μg/ml, day 102): 5229
- reverse transcriptase data ([1]; 15 μg/ml, day 109): 5718
- reverse transcriptase data ([1]; 30 μg/ml, day 4): 4841
- reverse transcriptase data ([1]; 30 μg/ml, day 11): 5389
- reverse transcriptase data ([1]; 30 μg/ml, day 18): 6988
- reverse transcriptase data ([1]; 30 μg/ml, day 25): 6061
- reverse transcriptase data ([1]; 30 μg/ml, day 32): 7572
- reverse transcriptase data ([1]; 30 μg/ml, day 39): 8558
- reverse transcriptase data ([1]; 30 μg/ml, day 46): 3065
- reverse transcriptase data ([1]; 30 μg/ml, day 53): 3643
- reverse transcriptase data ([1]; 30 μg/ml, day 60): 3445
- reverse transcriptase data ([1]; 30 μg/ml, day 67): 4368
- reverse transcriptase data ([1]; 30 μg/ml, day 71): 1498
- reverse transcriptase data ([1]; 30 μg/ml, day 74): 3639
- reverse transcriptase data ([1]; 30 μg/ml, day 88): 2697
- reverse transcriptase data ([1]; 30 μg/ml, day 95): 2442
- reverse transcriptase data ([1]; 30 μg/ml, day 102): 2815
- reverse transcriptase data ([1]; 30 μg/ml, day 109): 2095
- reverse transcriptase data on continuation (in words) ([1]; run through 242 days): data remained consistent
